Test results: PubChem BioAssay (NCI)
Values joined by “and” are separate entries in the source; they are usually repeats but may differ in a detail not shown here. Equal entries are not always repeated.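 Where inhibition never reached the appropriate level, the endpoint shown equals the highest concentration tested. Otherwise, values were interpolated linearly from a five-concentration, 48-hour dose response in 96-well plates. The concentration for 50% growth inhibition is given as GI50. At the TGI there is no net growth.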

Key:
Experiment in all cases: growth of human tumour cells (NCI), 48 h
[1] = system: CAKI-1 renal
[2] = system: HCC-2998 colon
[3] = system: HCT-116 colon
[4] = system: KM12 colon
[5] = system: LOX IMVI melanoma
[6] = system: NCI-H522 lung
[7] = system: SF-295 CNS
[8] = system: SF-539 CNS
[9] = system: SK-MEL-5 melanoma
[10] = system: UACC-257 melanoma

Structure (SMILES)	TGI [1]	TGI [2]	TGI [3]	TGI [4]	TGI [5]	TGI [6]	TGI [7]	TGI [8]	TGI [9]	TGI [10]	GI50 [1] [µM]	GI50 [2] [µM]	GI50 [3] [µM]	GI50 [5] [µM]	GI50 [6] [µM]	GI50 [8] [µM]	GI50 [9] [µM]	GI50 [4] [µM]	GI50 [7] [µM]	GI50 [10] [µM]
O=C1CCCCCCCCCCOC(=O)CCCCCCCCCCO1	> 100 µM	> 100 µM	> 100 µM	> 100 µM	> 100 µM	> 100 µM	> 100 µM	> 100 µM	> 100 µM	> 100 µM										
C=C(C)C1CCC2(C(=O)O)CCC3(C)C(CCC4C5(C)CCC(O)C(C)(C)C5CCC43C)C12 (configuration not stated)	27.4 µM	24.7 µM	17.5 µM	20.3 µM	52.8 µM	18.2 µM	23.6 µM	16.7 µM	20.3 µM	21.8 µM										
COC(=O)c1cc2c(nc1C)-c1ccccc1OS2(=O)=O	> 100 µM	> 100 µM	> 100 µM	> 100 µM	> 100 µM	> 100 µM	> 100 µM	> 100 µM	> 100 µM	> 100 µM										
O=C(NC(Cc1ccccc1)C(=O)CCl)OCc1ccccc1 (configuration not stated)	21.2 µM and 17.3 µM	28.8 µM and 32.2 µM	3.32 µM and 26.5 µM	22.2 µM and 21.7 µM	3.12 µM and 7.49 µM	3.43 µM and 4.31 µM	33 µM and 29.2 µM	10.3 µM and 16.8 µM	16.9 µM and 26.4 µM	26.7 µM and 26.2 µM	7.52	12.3	1.65	1.3	1.36	3	4.38			
O=C(CC(=O)N1N=C(c2ccccc2)C(N=Nc2ccccc2Cl)C1=O)Nc1ccccc1Cl (configuration not stated)	> 100 µM	> 100 µM	> 100 µM	> 100 µM	> 100 µM	> 100 µM	65.3 µM	> 100 µM	52.5 µM	> 100 µM										
CNC(=O)c1cc(Oc2ccc3nc(NC(=O)Nc4cc(C(F)(F)F)cc(C(F)(F)F)c4)sc3c2)ccn1	2.69 µM	3.23 µM	2.46 µM	2 µM	2.53 µM	2.28 µM	2.41 µM	2.8 µM	2.09 µM	2.62 µM	1.15	1.33	1.12	1.21	0.534	1.24	0.593	0.444	1.08	1.15
Cc1cc(N(CCC#N)CCC#N)ccc1CC1N=C(c2ccccc2)OC1=O (configuration not stated)	> 100 µM	> 100 µM	> 100 µM	> 100 µM	> 100 µM	> 100 µM	> 100 µM	> 100 µM	> 100 µM	> 100 µM										
COc1cc(CC2C(=O)OCC2[C@@H](OC(C)=O)c2ccc3c(c2)OCO3)c(Br)c(OC)c1OC (some centres not stated)	> 100 µM	> 100 µM	> 100 µM	> 100 µM	> 100 µM	> 100 µM	> 100 µM	> 100 µM	> 100 µM	> 100 µM										
CSCC(COC(C)=O)(CSC)c1ccncc1	> 100 µM	> 100 µM	> 100 µM	> 100 µM	> 100 µM	> 100 µM	> 100 µM	> 100 µM	> 100 µM	> 100 µM										
COc1cc(=O)oc(/C=C/CO)c1C	> 100 µM	> 100 µM	> 100 µM	> 100 µM	> 100 µM	> 100 µM	> 100 µM	> 100 µM	> 100 µM	> 100 µM										
COC(=O)C1=Cc2cn(S(=O)(=O)c3ccc(C)cc3)c3cccc(c23)C(C=C(C)C)N1C(C)=O (configuration not stated)	79.6 µM	> 100 µM	> 100 µM	> 100 µM	> 100 µM	20 µM	> 100 µM	> 100 µM	> 100 µM	> 100 µM										
C=C(C)[C@@H]1CC[C@]2(C(=O)N3CCN(C)CC3)CC[C@]3(C)[C@H](CC[C@@H]4[C@@]5(C)CC[C@H](O)C(C)(C)[C@@H]5CC[C@]43C)[C@@H]12	3.05 µM	3.59 µM	3.51 µM	4.03 µM	3.74 µM	3.8 µM	3.27 µM	3.12 µM	3.15 µM	3.57 µM	1.59	1.91	1.47	1.87	1.92	1.69	1.72	2.09	1.68	1.81
O=C(c1ccccc1)c1c2n(c3c1cc(O)c1ccccc13)CCN2	52.5 µM	18.9 µM	10.9 µM	8.88 µM	6.87 µM	4.03 µM	20.8 µM	6.04 µM	25.1 µM	3.4 µM	11.1	6.11	3.44	2.7	1.96	2.39	12.1	3.08	7.11	1.91
COC1/C=C/OC2(C)Oc3c(C)c(O)c4c(O)c(c(C=NOC(c5ccccc5)c5ccccc5)c(O)c4c3C2=O)NC(=O)/C(C)=C/C=C/C(C)C(O)C(C)C(O)C(C)C(OC(C)=O)C1C (configuration not stated)	7.15 µM	1.93 µM	1.86 µM	1.96 µM	1.82 µM	3.97 µM	3.57 µM	1.95 µM	1.52 µM	3.08 µM	1.77	0.97	0.97	0.913	1.18	0.979	0.805	0.992	1.21	1.14
[Au+].c1c[n-]cn1.c1ccc([PH+](c2ccccc2)c2ccccc2)cc1	16.4 µM	30.5 µM	14.6 µM	37.9 µM	15.2 µM	2.93 µM	26.6 µM	10.8 µM	14.4 µM	15.8 µM	4.69	13.8	5.19	4.03	1.19	4.38	3.08	14.5	11.8	5.04
COC(=O)[C@H](C)[C@@H]1CC[C@](C)(CCC2=C(C)CCCC2(C)C)OO1	> 25 µM	> 25 µM	> 25 µM	> 25 µM	> 25 µM	> 25 µM	> 25 µM	> 25 µM	> 25 µM	> 25 µM										
COc1ccc(N2C(=O)C3C=CC(n4[nH]c(=O)n(Cc5ccccc5)c4=O)CC3C2=O)cc1 (configuration not stated)	> 100 µM	> 100 µM	> 100 µM	> 100 µM	> 100 µM	> 100 µM	> 100 µM	> 100 µM	> 100 µM	> 100 µM										
